Measurements taken from patent publication US10517889B2, “Modulators of SMAD7 expression” (Ionis Pharmaceuticals, Inc., priority 2017, dated 2019).
Strand notation (5' to 3'): a small letter for the sugar, then the base; units joined by * are phosphorothioate-linked, units joined directly phosphodiester-linked; [ ] holds rarer units or linkages, { } end groups; capitals alone tell only the bases. k = constrained ethyl (cEt); [5mC] = 5-methylcytosine; d = 2'-deoxy (DNA)

Test system: human SMAD7 mRNA
Test: Antisense inhibition of human SMAD7 mRNA expression in Hep3B cells by 3-10-3 cEt gapmers, 10,000 nM, electroporation (Example 2)
Type: cell-based
Conditions: Hep3B cells, 10,000 nM antisense oligonucleotide, electroporation, approximately 24 hours, RT-PCR primer probe set RTS5062, relative to untreated control cells
In short: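 Percent inhibition of SMAD7 mRNA, relative to untreated cells, after ~24 h exposure of electroporated Hep3B cells to 10,000 nM cEt gapmer; levels by qRT-PCR, corrected for total RNA.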

Compared with “799957 (antisense kT*k[5mC]*kT*dG*dA*dG*dG*d[5mC]*dT*d[5mC]*d[5mC]*dT*dG*kG*kG*kT) [compound 799957]”, “800070 (antisense k[5mC]*k[5mC]*kA*dT*dG*dG*d[5mC]*dG*dG*dA*dA*dG*dA*kT*kG*kG) [compound 800070]” is lower in “% Inhibition” value: 11% for the first, 9% for the second.

First: 800058 (antisense kT*k[5mC]*kA*dT*d[5mC]*dA*dG*dG*d[5mC]*dA*dT*dT*d[5mC]*kA*k[5mC]*kT) [compound 800058]
Second: 798871 (kA*kA*kA*dG*d[5mC]*d[5mC]*dT*dT*dG*dA*dT*dG*dG*kA*kG*kA; antisense) [compound 798871]
The “% Inhibition” value of the first is higher: 51% for the first, 20% for the second.

Same assay, conditions: Hep3B cells, electroporation with 10,000 nM antisense oligonucleotide, approximately 24 hours, RTS5062, percent inhibition of SMAD7 mRNA relative to untreated control cells

First: 799292 (antisense kT*kG*kA*dT*dG*d[5mC]*dT*dG*dA*dT*dT*dA*dT*kT*kA*kA) [compound 799292]
Second: 799550 (kA*kG*k[5mC]*dT*d[5mC]*d[5mC]*dT*dA*d[5mC]*dT*dG*dT*dT*kG*kG*k[5mC]; antisense) [compound 799550]
The “% Inhibition” value of the first is lower: 19% for the first, 50% for the second.

First: 799586 (kG*kA*kG*dG*dA*dG*dG*d[5mC]*dA*d[5mC]*dT*d[5mC]*dA*kG*kG*k[5mC]; antisense) [compound 799586]
Second: 799627 (k[5mC]*kA*k[5mC]*dA*dA*dG*d[5mC]*dT*dT*dG*d[5mC]*dA*d[5mC]*k[5mC]*k[5mC]*kA; antisense) [compound 799627]
The “% Inhibition” value of the first is higher: 50% for the first, 48% for the second.

First: 799591 (kA*kT*kT*dA*dG*dT*dA*dA*dA*dT*d[5mC]*dA*dA*kG*kA*kG; antisense) [compound 799591]
Second: 799290 (antisense kG*kA*kT*dT*dA*dT*dT*dA*dA*dT*dG*dG*dT*k[5mC]*kT*kG) [compound 799290]
The “% Inhibition” value of the first is higher: 56% for the first, 16% for the second.

“799629 (kT*kA*k[5mC]*dA*d[5mC]*dA*d[5mC]*dA*d[5mC]*dA*dA*dG*d[5mC]*kT*kT*kG; antisense) [compound 799629]” was tested, and the “% Inhibition” value was 24%.

Same assay, conditions: Hep3B cells, electroporation with 10,000 nM antisense oligonucleotide, approximately 24 hours, SMAD7 mRNA by RT-PCR (RTS5062), relative to untreated control cells

First: 830075 (kT*k[5mC]*kA*dG*dG*dG*dT*dG*dT*d[5mC]*dA*dG*d[5mC]*k[5mC]*k[5mC]*kA; antisense) [compound 830075]
Second: 799353 (kT*k[5mC]*kT*dT*dT*dT*dA*dG*d[5mC]*d[5mC]*d[5mC]*dA*dA*k[5mC]*kT*kG; antisense) [compound 799353]
The “% Inhibition” value of the first is lower: 39% for the first, 45% for the second.

First: 830175 (antisense kT*k[5mC]*kT*d[5mC]*dA*dA*d[5mC]*dA*dG*dA*d[5mC]*d[5mC]*dA*k[5mC]*kA*k[5mC]) [compound 830175]
Second: 830129 (antisense k[5mC]*kA*k[5mC]*d[5mC]*dT*d[5mC]*d[5mC]*dG*dA*dG*dG*d[5mC]*dA*k[5mC]*k[5mC]*kA) [compound 830129]
The “% Inhibition” value of the first is higher: 44% for the first, 41% for the second.

First: 799943 (antisense kT*kG*k[5mC]*d[5mC]*d[5mC]*dT*d[5mC]*dT*d[5mC]*dA*dG*dG*dG*kT*k[5mC]*kT) [compound 799943]
Second: 830194 (antisense k[5mC]*k[5mC]*kT*dT*dT*dT*d[5mC]*d[5mC]*dG*dG*dT*dA*dT*kT*kT*kT) [compound 830194]
The “% Inhibition” value of the first is lower: 0% for the first, 49% for the second.

First: 799335 (kT*kG*k[5mC]*dA*dG*dG*dA*dG*d[5mC]*dA*dG*dT*dG*k[5mC]*k[5mC]*k[5mC]; antisense) [compound 799335]
Second: 790464 (kA*kG*k[5mC]*dG*dA*dA*d[5mC]*dA*dT*dG*dA*d[5mC]*d[5mC]*kT*k[5mC]*k[5mC]; antisense) [compound 790464]
The “% Inhibition” value of the first is lower: 31% for the first, 58% for the second.

First: 800079 (antisense kT*kA*k[5mC]*d[5mC]*dT*dT*dA*dA*d[5mC]*dA*dA*dA*dG*k[5mC]*kT*kT) [compound 800079]
Second: 830049 (kG*kT*kT*dT*d[5mC]*d[5mC]*dG*dA*dT*dT*dG*dG*d[5mC]*kA*kG*kG; antisense) [compound 830049]
The “% Inhibition” value of the first is higher: 61% for the first, 43% for the second.

First: 790479 (kG*kG*k[5mC]*dA*dG*d[5mC]*dA*dG*dG*dA*dG*dG*d[5mC]*kA*k[5mC]*kG; antisense) [compound 790479]
Second: 830015 (antisense kG*k[5mC]*kT*dG*dG*dT*dG*d[5mC]*d[5mC]*dA*dG*dT*d[5mC]*kT*k[5mC]*kA) [compound 830015]
The “% Inhibition” value of the first is lower: 43% for the first, 56% for the second.

First: 830058 (kG*kG*kT*dA*dG*dG*d[5mC]*dA*d[5mC]*dA*dT*d[5mC]*dA*kT*k[5mC]*kA; antisense) [compound 830058]
Second: 799252 (antisense k[5mC]*kA*kA*dA*dG*dG*dT*dG*d[5mC]*dG*d[5mC]*dG*dG*k[5mC]*k[5mC]*kA) [compound 799252]
The “% Inhibition” value of the first is lower: 22% for the first, 41% for the second.

Same assay, conditions: Hep3B cells, electroporation with 10,000 nM antisense oligonucleotide, approximately 24 hours, primer probe set RTS5062, relative to untreated control cells

First: 798967 (antisense kT*k[5mC]*kA*dT*dA*d[5mC]*d[5mC]*dT*dG*d[5mC]*d[5mC]*d[5mC]*d[5mC]*kT*kT*k[5mC]) [compound 798967]
Second: 799421 (antisense kA*kA*k[5mC]*d[5mC]*d[5mC]*dA*dA*dG*dA*d[5mC]*d[5mC]*dA*dA*kA*kA*kA) [compound 799421]
The “% inhibition of SMAD7 mRNA expression” value of the first is lower: 40% for the first, 63% for the second.

First: 798748 (antisense k[5mC]*kT*k[5mC]*d[5mC]*dA*d[5mC]*dG*dG*d[5mC]*d[5mC]*dT*dG*dG*kA*kG*k[5mC]) [compound 798748]
Second: 799264 (antisense k[5mC]*k[5mC]*kA*dT*d[5mC]*d[5mC]*dA*dA*d[5mC]*dT*d[5mC]*dT*d[5mC]*kT*kT*kT) [compound 799264]
The “% inhibition of SMAD7 mRNA expression” value of the first is higher: 58% for the first, 16% for the second.

Going from “798968 (antisense k[5mC]*kG*kA*dT*d[5mC]*dA*dT*dA*d[5mC]*d[5mC]*dT*dG*d[5mC]*k[5mC]*k[5mC]*k[5mC]) [compound 798968]” to “799477 (antisense kG*kT*kT*d[5mC]*d[5mC]*dA*dT*dA*dG*dG*d[5mC]*dA*dG*k[5mC]*k[5mC]*kA) [compound 799477]”, the “% inhibition of SMAD7 mRNA expression” value falls from 62% to 4%.

Going from “799456 (antisense kT*k[5mC]*k[5mC]*dT*dA*dA*dG*dT*dA*d[5mC]*dT*dG*dT*kT*kA*kA) [compound 799456]” to “798658 (kA*k[5mC]*k[5mC]*d[5mC]*d[5mC]*dG*d[5mC]*dG*d[5mC]*dG*dG*d[5mC]*d[5mC]*k[5mC]*kG*k[5mC]; antisense) [compound 798658]”, the “% inhibition of SMAD7 mRNA expression” value rises from 0% to 71%.

“799339 (kG*kA*kT*dA*d[5mC]*d[5mC]*d[5mC]*dA*dG*dT*dT*d[5mC]*dG*kG*k[5mC]*k[5mC]; antisense) [compound 799339]” was tested, and the “% inhibition of SMAD7 mRNA expression” value was 18%.

First: 799160 (antisense kA*k[5mC]*kG*dA*dG*dT*dG*dT*dA*dT*dG*dA*dG*kT*kT*kG) [compound 799160]
Second: 790630 (kG*kG*kA*dA*d[5mC]*dA*dT*dA*dA*dA*d[5mC]*dT*d[5mC]*k[5mC]*kT*kT; antisense) [compound 790630]
The “% Inhibition” value of the first is higher: 61% for the first, 0% for the second.

First: 799036 (kA*kG*k[5mC]*d[5mC]*dG*d[5mC]*d[5mC]*dA*dG*d[5mC]*dT*dT*dG*k[5mC]*k[5mC]*k[5mC]; antisense) [compound 799036]
Second: 799228 (k[5mC]*kA*kT*dA*dG*dA*dA*dA*dA*dA*dA*dA*d[5mC]*kA*k[5mC]*k[5mC]; antisense) [compound 799228]
The “% Inhibition” value of the first is higher: 8% for the first, 4% for the second.

In the case of “799001 (antisense k[5mC]*kA*kG*d[5mC]*d[5mC]*dG*d[5mC]*dA*d[5mC]*dA*d[5mC]*dT*d[5mC]*kA*k[5mC]*kA) [compound 799001]”, the “% Inhibition” value is reported as 37%.

Same assay, conditions: Hep3B cells, electroporation, 10,000 nM antisense oligonucleotide, approximately 24 hours, RTS5062, relative to untreated control cells

Going from “799636 (k[5mC]*kA*k[5mC]*dA*dG*dA*d[5mC]*dT*dG*d[5mC]*d[5mC]*dA*dA*kA*kT*k[5mC]; antisense) [compound 799636]” to “799679 (antisense k[5mC]*kT*kG*d[5mC]*dA*dG*dG*dG*dT*dA*d[5mC]*dT*dA*kA*kG*kG) [compound 799679]”, the “% inhibition of SMAD7 mRNA expression” value falls from 55% to 0%.

Same assay, conditions: Hep3B cells, electroporation, 10,000 nM, approximately 24 hours; 3-10-3 cEt gapmers targeting SEQ ID NO: 3 and 4

In the case of “799269 (antisense kA*kG*kA*d[5mC]*dT*d[5mC]*d[5mC]*dA*dG*dT*dT*d[5mC]*dG*kG*k[5mC]*k[5mC]) [compound 799269]”, the “% inhibition of SMAD7 mRNA expression” value is reported as 20%.

Same assay, conditions: SMAD7 mRNA, Hep3B cells, 10,000 nM antisense oligonucleotide, electroporation, approximately 24 hours, primer probe set RTS5062, relative to untreated control cells

First: 772713 (kA*kT*kA*dA*d[5mC]*dA*d[5mC]*d[5mC]*d[5mC]*dA*dT*dA*dG*kA*kA*kA; antisense) [compound 772713]
Second: 790486 (kT*kG*k[5mC]*d[5mC]*dT*dG*dA*dG*dA*dT*d[5mC]*d[5mC]*dG*kG*k[5mC]*k[5mC]; antisense) [compound 790486]
The “% Inhibition” value of the first is higher: 24% for the first, 23% for the second.

“790741 (kA*kT*kT*dA*dA*dG*d[5mC]*d[5mC]*d[5mC]*dG*d[5mC]*dT*d[5mC]*kT*k[5mC]*kA; antisense) [compound 790741]” was tested, and the “% Inhibition” value was 30%.

Same assay, conditions: SMAD7 mRNA, Hep3B cells, electroporation with 10,000 nM antisense oligonucleotide, approximately 24 hours, primer probe set RTS5062, relative to untreated control cells

Compared with “830002 (kT*kA*kG*d[5mC]*d[5mC]*d[5mC]*dA*dA*d[5mC]*dT*dG*dT*dT*kT*kG*kT; antisense) [compound 830002]”, “830008 (antisense kT*kA*kG*dA*dG*dG*d[5mC]*dT*d[5mC]*dT*dA*dT*dT*kT*k[5mC]*kT) [compound 830008]” is lower in “% Inhibition” value: 43% for the first, 0% for the second.

In the case of “829952 (kA*k[5mC]*k[5mC]*d[5mC]*dG*dT*d[5mC]*dT*dG*dG*dG*d[5mC]*dT*k[5mC]*k[5mC]*kG; antisense) [compound 829952]”, the “% Inhibition” value is reported as 2%.
